{
  "source": "patent US10041905B2",
  "about": "“Electrochemically active agents for pH modulation in biological buffers” (Robert Bosch GmbH, priority 2015, dated 2018)",
  "key": {"[1]": {"assay": "Electrochemical generation of H+ or OH- ions at indium tin oxide electrode surfaces (electro-oxidation / electro-reduction, cyclic voltammetry)", "assay_type": "physicochemical", "from_the_text": "Electrode material used: The electrode material was indium tin oxide. This is a semiconducting electrode surface with very large potential window in an aqueous solution.\nOxidation of ascorbic acid at the electrode surfaces produced H^+ ions and changed the electrode surface pH to a more acidic state: AH2→A+2H^++2e^−, where AH2 is ascorbic acid ([…]) (as shown in FIG. 5). The electrode potential at which it oxidizes was less than 0.5V for Indium tin oxide material vs Ag/AgCl reference electrode (as shown in FIG. 7). This potential was less than the voltages needed for the oxygen evolution reaction in aqueous solution. The ascorbic acid also acted as a sacrificial species to prevent electrochemical degradation of the surface chemistry.\nReduction of benzoquinone (C6H4O2) into Hydroquinone (C6H6O2) can produce OH^− ions at −0.1V: BQ+2e^−+2H2O →HQ+2OH^− This reduction reaction increased the pH at the electrode interface."}, "[2]": {"target": "T1, Green Fluorescent Protein (GFP) (Aequorea victoria, UniProt P42212)", "assay": "Fluorescence intensity of GFP after incubation with benzoquinones (protein stability)", "assay_type": "biochemical", "settings": "0.5 mM benzoquinone, phosphate buffered saline, 30 min", "description": "Para-benzoquinones and ortho-benzoquinones (compounds 2, 4, 6, and 9 in FIG. 31) are susceptible to nucleophilic attack at the double bond of the ring (positions 2, 3, 5 and 6 in structure 2 of FIG. 31, positions 3, 4, 5 and 6 in structure 4 of FIG. 31, and positions 2 and 3 in structure 6 of FIG. 31). Introducing substituents at some or all of those positions can mitigate the problem of nucleophilic attack. […] Fluorescence intensity of Green Fluorescent Protein (GFP) was measured after incubation with three different benzoquinones in phosphate buffered saline for 30 min (concentration of benzoquinones was 0.5 mM). The difference in fluorescence intensity indicates the varied effect that the different substitutions in benzoquinones have on the stability of GFP. Fluorescence intensity of GFP is indicative of its structural integrity. Losses in fluorescence intensity usually indicate loss of its tertiary structure (protein denaturation) (Yin D. X., Zhu L., Schimke R. T. Anal. Biochem. 1996, 235:195-201)."}, "[3]": {"target": "T1, Green Fluorescent Protein (GFP)", "settings": "literature (Loomis et al.; U.S. Pat. No. 6,753,312); cited from earlier work"}},
  "data": [
    {"smiles": "O=C1O[C@H]([C@@H](O)CO)C(O)=C1O", "note": "[ascorbic acid]", "values": [
      {"measurement": "potential of current increase indicating start of oxidation", "setting": "[1]; cyclic voltammetry, ITO electrodes", "result": "around 0.25 V"},
      {"measurement": "electrode potential at which it oxidizes", "setting": "[1]; indium tin oxide vs Ag/AgCl reference electrode", "result": "less than 0.5 V"}
    ]},
    {"smiles": "O=C1C=CC(=O)C=C1", "note": "[unsubstituted benzoquinone, 1,4-benzoquinone]", "values": [
      {"measurement": "loss in GFP fluorescence intensity after incubation", "setting": "[2]", "result": 25, "unit": "%"},
      {"measurement": "potential of reduction producing OH- ions", "setting": "[1]; reduction of benzoquinone into hydroquinone", "result": "−0.1", "unit": "V"},
      {"measurement": "Michael addition reaction with amino groups of proteins", "setting": "[3]", "result": "undergoes Michael addition reaction"}
    ]}
  ]
}
